Source: patent US11932652B2, “Pyrrolidinyl urea derivatives and application thereof in TrkA-related diseases” (ZHANGZHOU PIEN TZE HUANG PHARMACEUTICAL CO., LTD., priority 2018, dated 2024)

How the values were obtained:
[1] = test system: plasma protein; assay: Plasma protein binding rate (PPB) test, SD rat plasma; type: in vitro ADME; conditions: 2 μM, dialysis 37° C. 4 hours
Description: The protein binding rates of the test compound in the plasma of humans, SD rats and Beagle dogs were determined.
796 μL of blank plasma from humans, SD rats and Beagle dogs (plasma purchased from BioreclamationIVT) were taken, 4 μL of working solution of the test compound (400 μM) or warfarin working solution (400 μM) was added and the final concentration of the test compound or warfarin was 2 μM. The sample was mixed thoroughly. The final concentration of organic phase DMSO was 0.5%; 50 μL of the plasma sample treated with the test compound or warfarin was pipetted into the sample receiving plate, and a corresponding volume of blank plasma or buffer was added immediately so that the final volume in each sample well was 100 μL, the volume ratio of plasma:dialysis buffer was 1:1; 400 μL of stop solution was added to these samples, and these samples were used as T0 samples for recovery and stability determination. To samples were stored at 2° C. to 8° C. for subsequent processing together with other dialyzed samples; 150 μL of the plasma sample treated with the test compound or warfarin was added into the dosing end of each dialysis hole, and 150 μL of blank dialysis buffer was added to the receiving end corresponding to the dialysis hole. Then the dialysis plate was sealed with gas-permeable membrane and placed in a humidified 5% CO2 incubator, and incubated at 37° C. with 100 rpm shaking for 4 hours. After the dialysis, 50 μL of the dialysis buffer sample and the dialysis plasma sample was transferred to a new sample receiving plate. […] All samples were analyzed by LC/MS/MS after protein precipitation, and the plasma protein unbound rate, binding rate and recovery rate was calculated according to the following formula: % unbound rate=100*free compound concentration at the membrane buffer side/total compound concentration at the membrane plasma side, % protein binding rate=100-% unbound rate, % recovery rate=100*(free compound concentration at the membrane buffer side+total compound concentration at the membrane plasma side)/total compound concentration before dialysis.

[2] = biological target: T1, CYP3A4 (Homo sapiens, UniProt P08684); assay: Cytochrome P450 isozyme inhibitory activity test, CYP3A4; type: in vitro ADME; conditions: heading: Cytochrome P450 isozyme IC50, CYP3A4; human liver microsome
T1 construct: from tissue; host or cells: human liver microsomes
Description: Determination of the inhibitory activity of the test compound on different human cytochrome P450 isozymes.
The test compound, standard inhibitor (100×final concentration), and a mixed substrate working solution were prepared; the microsome frozen in −80° C. refrigerator was thawed. 2 μL of the test compound and standard inhibitor solution was added to the corresponding wells, and at the same time 2 μL of the corresponding solvent was added to the non-inhibitor control wells (NIC) and blank control wells (Blank) wells; then 20 μL of mixed substrate solution was added to the corresponding wells, except for the Blank wells (20 μL of PB was added to the Blank wells); a human liver microsome solution was prepared (put back into the refrigerator immediately after using and marking the date), and then 158 μL of the human liver microsome solution was added to all wells; the above sample plate was placed in a 37° C. water bath for pre-incubation, then the coenzyme factor (NADPH) solution was prepared; 10 minutes later, 20 μL of the NADPH solution was added to all wells, and the sample plate was shaken well, placed in a 37° C. water bath and incubated for 10 minutes; at the corresponding time point, 400 μL of cold acetonitrile solution (internal standard: 200 ng/mL tolbutamide and labetalol) was added to terminate the reaction; the sample plate was evenly mixed, centrifuged at 4000 rpm for 20 minutes to precipitate proteins; 200 μL of the supernatant was added to 100 μL of water, shook well, and tested by LC/MS/MS.

[3] = In vivo pharmacokinetics in mice after single administration; design: species or system CD-1 mice
Description: Male CD-1 mice were used as test animals, the concentration of the compound in blood was determined after single administration to evaluate the pharmacokinetic behavior.
CD-1 mice (male, 20-40 g, 6-9 weeks, Shanghai Sippr-Bk Laboratory Animal Co., Ltd.)
The pharmacokinetic characteristics of the test compound in rodents after intravenous injection and oral administration were tested by standard protocols, in the experiment, the test compound was prepared into a clear solution or homogeneous suspension, and administered to the mice by single intravenous injection and oral administration. […] The plasma sample was added to acetonitrile solution containing the internal standard with a volume 20 times that of the plasma sample to precipitate proteins, and then centrifuged; the supernatant was separated, and water with a volume twice that of the supernatant was added to the supernatant, which was then centrifuged again; the supernatant was collected for analysis; LC-MS/MS analysis method was used to quantitatively analyze the blood drug concentration, and Phoenix WinNonlin software (Pharsight, USA) was used to calculate the pharmacokinetic parameters, such as peak concentration, time to peak concentration, clearance rate, half-life, area under the concentration-time curve, bioavailability, etc. […]

T1 sequence (P08684 whole entry): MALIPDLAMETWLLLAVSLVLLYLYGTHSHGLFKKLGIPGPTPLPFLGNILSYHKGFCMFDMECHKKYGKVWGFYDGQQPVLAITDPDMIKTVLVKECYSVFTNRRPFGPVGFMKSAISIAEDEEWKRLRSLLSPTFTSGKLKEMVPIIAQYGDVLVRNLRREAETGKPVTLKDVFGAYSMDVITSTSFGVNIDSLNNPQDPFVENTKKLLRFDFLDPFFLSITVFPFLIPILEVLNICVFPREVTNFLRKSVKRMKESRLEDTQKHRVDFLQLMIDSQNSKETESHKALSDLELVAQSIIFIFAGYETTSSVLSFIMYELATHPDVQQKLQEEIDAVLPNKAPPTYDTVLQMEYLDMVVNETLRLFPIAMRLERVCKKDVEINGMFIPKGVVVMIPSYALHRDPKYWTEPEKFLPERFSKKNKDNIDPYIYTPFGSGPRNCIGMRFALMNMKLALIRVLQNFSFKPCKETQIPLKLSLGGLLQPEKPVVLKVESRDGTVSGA

**Q.** Which “Plasma protein unbound rate, SD Rat plasma” value [1] does the source give for `COCCN1C[C@@H](n2ccc(F)c2)[C@H](NC(=O)Nc2c(C)c(-c3cnc(C4(F)COC4)nc3)nn2-c2ccccc2)C1` [Compound 7] here?
**A.** 7.1%

**Q.** And the IC50 [2]?
**A.** > 50 µM

**Q.** What about the “pharmacokinetic properties and oral bioavailability (in words)” value [3] of the same compound?
**A.** good pharmacokinetic properties and oral bioavailability
